Activity calls are given as the source filed them. The rule behind the calls is not given here.
What was measured:
Type in all cases: functional, organism-based
Leishmania tarentolae [1] = experiment: Growth inhibition of Leishmania tarentolae promastigotes assessed as mitochondrial superoxide production at 5 to 10 uM after 3 hrs by confocal fluorescence microscopy
Leishmania tarentolae [2] = experiment: Growth inhibition of light-illuminated Leishmania tarentolae promastigotes assessed as enhancement of mitochondrial superoxide production at 5 to 10 uM after 3 hrs by confocal fluorescence microscopy
Leishmania tarentolae [3] = experiment: Growth inhibition of Leishmania tarentolae axenic promastigotes after 2 days relative to ethanol
Leishmania tarentolae [4] = experiment: Growth inhibition of Leishmania tarentolae axenic promastigotes upto 40 uM
Leishmania tarentolae [5] = experiment: Induction of mitochondrial singlet oxygen production in Leishmania tarentolae promastigotes at 2 uM by confocal fluorescence microscopy

| Structure (SMILES) | Activity (Leishmania tarentolae [1]) | Activity (Leishmania tarentolae [2]) | Activity (Leishmania tarentolae [3]) | Activity (Leishmania tarentolae [4]) | Activity (Leishmania tarentolae [5]) |
| --- | --- | --- | --- | --- | --- |
| CCOC1(OCC)/C2=C\C3=NC(=C\C4=NC(=C\c5[nH]c(c(C)c5CC)/C=C\1c1ccccc12)/C(CC)=C4CC)/C(CC)=C3C | Active | Active | Dose-dependent effect | inactive |  |
| CCC1=C(CC)/C2=C/c3[nH]c(c(C)c3CC)/C=C3/c4ccccc4/C(=C/C4=NC(=C\C1=N2)/C(CC)=C4C)C3(OC)OC | Active | Active | Dose-dependent effect | inactive | Active |
